In patent US4345938A, “Herbicidal 2-haloacetanilides” (Monsanto Company, priority 1980, dated 1982):

Columns and labels:
Format in all cases: in vivo
Panicum Spp. = assay: Pre-emergent herbicidal test, Panicum Spp.; also: ranges in brackets are in %; details: Table II
From the text: (§1) A good grade of top soil is placed in aluminum pans and compacted to a depth of three-eights to one-half inch from the top of the pan. On the top of the soil is placed a number of seeds or vegetative propagules of various plant species. The soil required to level fill the pans after seeding or adding vegetative propagules is weighted into a pan. The soil and a known amount of the active ingredient applied in a solvent or as a wettable powder suspension are thoroughly mixed, and used to cover the prepared pans. After treatment, the pans are moved into a greenhouse bench where they are watered by subirrigation as needed to give adequate moisture for germination and growth.
(§2) Approximately 2 weeks after seeding and treating, the plants were observed and the results recorded. The herbicidal rating was obtained by means of a fixed scale based on the percent injury of each plant species. The ratings are defined as follows: […]
(§3) The compounds were further tested by utilizing the above procedure on the following plant species: […]

Johnsongrass = assay: Pre-emergent herbicidal test, Johnsongrass; details: Table I; also: ranges in brackets are in %
From the text: as §1, §2

Barnyardgrass = assay: Sugarbeet greenhouse test, BYG; details: in sugarbeets
From the text: (§4) In the discussion of data below, occasional reference is made to herbicide application rates symbolized as "GR15 " and "GR85 "; these rates are given in kilograms per hectare (kg/ha) which are convertible into pounds per acre (lbs/A) by dividing the kg/ha rate by 1.12.
(§5) A further guide to the effectiveness of a chemical as a selective herbicide is the "selectivity factor" ("SF") for a herbicide in given crops and weeds. The selectivity factor is a measure of the relative degree of crop safety and weed injury and is expressed in terms of the GR15 /GR85 ratio, i.e., the GR15 rate for the crop divided by the GR85 rate for the weed, both rates in kg/ha (lb/A.)
(§6) In further tests in the greenhouse, the compound of Example 2 was tested for its activity against annual weeds in sugarbeets at test rates within the range of 0.07 to 1.12 kg/ha (0.0625 to 1.0 lb/A). The GR15 and GR85 rates for sugarbeets and the various weeds are shown in Table VI; the selectivity factors for the herbicide against the weeds in sugarbeets are shown in parentheses below the weeds; "NS" means non-selective within the test limits. The following abbreviations are used in the table: barnyardgrass (BYG), wild oats (WO), downy brome (DB); redroot pigweed (RRP), blackgrass (BG), large crabgrass (LCG) and yellow foxtail (YFT).

Downy Brome [1] = assay: Pre-emergent herbicidal test, Downy Brome; also: ranges in brackets are in %
From the text: as §1, §2

Upland seeded rice = Upland seeded rice greenhouse test, rice safety
Experimental: (§7) In another comparative test in the greenhouse, the compound of Example 2 and Compound B were tested in Upland seeded rice. […] In contrast, Compound A, (a commercial rice herbicide), required 0.14 kg/ha (0.125 lb/A) to selectively control the same weed with rice safety also maintained at 1.12 kg/ha resulting in a selectivity factor of at least 8, i.e., less than one-half that of the compound of Example 2.

Cocklebur = assay: Pre-emergent herbicidal test, Cocklebur; also: ranges in brackets are in %
From the text: as §1, §2

Hemp Sesbania = assay: Pre-emergent herbicidal test, Hemp Sesbania; details: Table II; also: ranges in brackets are in %
From the text: as §1, §2, §3

Smartweed = assay: Pre-emergent herbicidal test, Smartweed; also: ranges in brackets are in %
From the text: as §1, §2

large crabgrass = assay: Sugarbeet greenhouse test, LCG; details: in sugarbeets
From the text: as §4, §5, §6

Sorghum = assay: Pre-emergent herbicidal test, Sorghum; details: Table II; also: ranges in brackets are in %
From the text: as §1, §2, §3

Velvetleaf = assay: Pre-emergent herbicidal test, Velvetleaf; also: ranges in brackets are in %
From the text: as §1, §2

Yellow Nutsedge = assay: Pre-emergent herbicidal test, Yellow Nutsedge; details: Table I; also: ranges in brackets are in %
From the text: as §1, §2

yellow foxtail = assay: Sugarbeet greenhouse test, YFT; details: in sugarbeets
From the text: as §4, §5, §6

Downy Brome [2] = assay: Sugarbeet greenhouse test, DB; details: in sugarbeets
From the text: as §4, §5, §6

Echinochloa crus-galli = assay: Upland seeded rice greenhouse test, barnyardgrass; details: for rate for selective control of Echinochloa crus-galli / selectivity factor, Echinochloa crus-galli in Upland seeded rice: Upland seeded rice, greenhouse
Experimental: as §7

direct-seeded rice = assay: Field tests in direct-seeded rice; details: less tolerant than transplant rice
From the text: The herbicides of this invention may be used singly, as mixtures with other herbicides and may be used in sequential use with other herbicides. For example, treatments of a transplant rice crop with the herbicides of this invention may be followed with treatments of other herbicides or mixtures such as S-4-chlorobenzyl diethylthiocarbamate (common name "benthiocarb") plus 2-chloro-4,6-di(ethylamino)-1,3,5-triazine (common name "simazine") or 3-isopropyl-(1H)-benzo-2,1,3-thiadiazine-4-one-2,2-dioxide (common name "bentazone") or 4-(4-chloro-2-methylphenoxy)butyric acid (common name "MCPB"). […] However, because of the high unit activity of compounds according to this invention against annual and perennial weeds associated with rice, it is within the purview of this invention to combine these herbicides with safeners or antidotes, to enhance the tolerance of both transplanted and direct-seeded rice thereto. Exemplary safeners contemplated as useful with the herbicides of this invention include the phenylglyoxylonitrile-2-oxime cyanomethyl ether described in U.S. Pat. No. 4,152,137, 2,4-disubstituted-5-thiazolecarboxylic acids and derivatives thereof as disclosed in the assignee's copending U.S. Ser. No. 906,183 and other known safeners for 2-haloacetanilides in rice.

Compound: CCCCOc1cccc(CC)c1N(CC)C(=O)CCl [Example 2, N-ethyl-2'-n-butoxy-6'-ethyl-2-chloroacetanilide]
- Rating, Panicum Spp. (Panicum Spp.; 0.01 kg/h): 0 (0-24)
- Rating, Panicum Spp. (Panicum Spp.; 0.06 kg/h): 1 (25-49)
- Rating, Panicum Spp. (Panicum Spp.; 0.28 kg/h): 3 (75-100)
- Rating, Panicum Spp. (Panicum Spp.; 1.12 kg/h): 3 (75-100)
- Rating, Panicum Spp. (Panicum Spp.; 5.6 kg/h): 3 (75-100)
- Rating, Johnsongrass (Johnsongrass; 5.6 kg/h): 2 (50-74)
- Rating, Johnsongrass (Johnsongrass; 11.2 kg/h): 3 (75-100)
- GR85 Rate, BYG (Barnyardgrass): < 0.07 Kg/Ha
- selectivity factor, BYG (Barnyardgrass): > 8.0
- Rating, Downy Brome (Downy Brome [1]; Table I, 5.6 kg/h): 3 (75-100)
- Rating, Downy Brome (Downy Brome [1]; Table I, 11.2 kg/h): 3 (75-100)
- Rating, Downy Brome (Downy Brome [1]; Table II, 0.01 kg/h): 0 (0-24)
- Rating, Downy Brome (Downy Brome [1]; Table II, 0.06 kg/h): 1 (25-49)
- Rating, Downy Brome (Downy Brome [1]; Table II, 0.28 kg/h): 3 (75-100)
- Rating, Downy Brome (Downy Brome [1]; Table II, 1.12 kg/h): 3 (75-100)
- Rating, Downy Brome (Downy Brome [1]; Table II, 5.6 kg/h): 3 (75-100)
- rate at which rice safety is maintained (Upland seeded rice; in vivo): ≥ 1.12 kg/ha
- Rating, Cocklebur (Cocklebur; Table I, 5.6 kg/h): 0 (0-24)
- Rating, Cocklebur (Cocklebur; Table I, 11.2 kg/h): 0 (0-24)
- Rating, Cocklebur (Cocklebur; Table II, 0.01 kg/h): 0 (0-24)
- Rating, Cocklebur (Cocklebur; Table II, 0.06 kg/h): 0 (0-24)
- Rating, Cocklebur (Cocklebur; Table II, 0.28 kg/h): 0 (0-24)
- Rating, Cocklebur (Cocklebur; Table II, 1.12 kg/h): 0 (0-24)
- Rating, Cocklebur (Cocklebur; Table II, 5.6 kg/h): 1 (25-49)
- Rating, Hemp Sesbania (Hemp Sesbania; 0.01 kg/h): 0 (0-24)
- Rating, Hemp Sesbania (Hemp Sesbania; 0.06 kg/h): 0 (0-24)
- Rating, Hemp Sesbania (Hemp Sesbania; 0.28 kg/h): 0 (0-24)
- Rating, Hemp Sesbania (Hemp Sesbania; 1.12 kg/h): 2 (50-74)
- Rating, Hemp Sesbania (Hemp Sesbania; 5.6 kg/h): 2 (50-74)
- Rating, Smartweed (Smartweed; Table I, 5.6 kg/h): 3 (75-100)
- Rating, Smartweed (Smartweed; Table I, 11.2 kg/h): 3 (75-100)
- Rating, Smartweed (Smartweed; Table II, 0.01 kg/h): 0 (0-24)
- Rating, Smartweed (Smartweed; Table II, 0.06 kg/h): 0 (0-24)
- Rating, Smartweed (Smartweed; Table II, 0.28 kg/h): 0 (0-24)
- Rating, Smartweed (Smartweed; Table II, 1.12 kg/h): 2 (50-74)
- Rating, Smartweed (Smartweed; Table II, 5.6 kg/h): 3 (75-100)
- GR85 Rate, LCG (large crabgrass): 0.07 Kg/Ha
- selectivity factor, LCG (large crabgrass): 8.0
- Rating, Sorghum (Sorghum; 0.01 kg/h): 0 (0-24)
- Rating, Sorghum (Sorghum; 0.06 kg/h): 0 (0-24)
- Rating, Sorghum (Sorghum; 0.28 kg/h): 1 (25-49)
- Rating, Sorghum (Sorghum; 1.12 kg/h): 3 (75-100)
- Rating, Sorghum (Sorghum; 5.6 kg/h): 3 (75-100)
- Rating, Velvetleaf (Velvetleaf; Table I, 5.6 kg/h): 0 (0-24)
- Rating, Velvetleaf (Velvetleaf; Table I, 11.2 kg/h): 1 (25-49)
- Rating, Velvetleaf (Velvetleaf; Table II, 0.01 kg/h): 0 (0-24)
- Rating, Velvetleaf (Velvetleaf; Table II, 0.06 kg/h): 0 (0-24)
- Rating, Velvetleaf (Velvetleaf; Table II, 0.28 kg/h): 0 (0-24)
- Rating, Velvetleaf (Velvetleaf; Table II, 1.12 kg/h): 0 (0-24)
- Rating, Velvetleaf (Velvetleaf; Table II, 5.6 kg/h): 1 (25-49)
- Rating, Yellow Nutsedge (Yellow Nutsedge; 5.6 kg/h): 3 (75-100)
- Rating, Yellow Nutsedge (Yellow Nutsedge; 11.2 kg/h): 3 (75-100)
- GR85 Rate, YFT (yellow foxtail): < 0.07 Kg/Ha
- selectivity factor, YFT (yellow foxtail): > 8.0
- GR85 Rate, DB (Downy Brome [2]): 0.14 Kg/Ha
- selectivity factor, DB (Downy Brome [2]): 4.0
- rate for selective control of Echinochloa crus-galli (Echinochloa crus-galli): 0.064 kg/ha
- selectivity factor, Echinochloa crus-galli in Upland seeded rice (Echinochloa crus-galli): at least 17.5
- control of barnyardgrass (Echinochloa crus-galli; upland-seeded rice test, 0.0087 kg/ha (0.0078 lb/A)): 20%

Compound: CCCCOc1cccc(CC)c1N(C)C(=O)CCl [Example 1, N-methyl-2'-n-butoxy-6'-ethyl-2-chloroacetanilide]
- Rating, Panicum Spp. (Panicum Spp.; 0.006 kg/h): 0 (0-24)
- Rating, Panicum Spp. (Panicum Spp.; 0.01 kg/h): 1 (25-49)
- Rating, Panicum Spp. (Panicum Spp.; 0.06 kg/h): 3 (75-100)
- Rating, Panicum Spp. (Panicum Spp.; 0.28 kg/h): 3 (75-100)
- Rating, Panicum Spp. (Panicum Spp.; 1.12 kg/h): 3 (75-100)
- Rating, Panicum Spp. (Panicum Spp.; 5.6 kg/h): 3 (75-100)
- Rating, Johnsongrass (Johnsongrass; 5.6 kg/h): 3 (75-100)
- Rating, Johnsongrass (Johnsongrass; 11.2 kg/h): 3 (75-100)
- Rating, Downy Brome (Downy Brome [1]; Table I, 5.6 kg/h): 3 (75-100)
- Rating, Downy Brome (Downy Brome [1]; Table I, 11.2 kg/h): 3 (75-100)
- Rating, Downy Brome (Downy Brome [1]; Table II, 0.006 kg/h): 0 (0-24)
- Rating, Downy Brome (Downy Brome [1]; Table II, 0.01 kg/h): 1 (25-49)
- Rating, Downy Brome (Downy Brome [1]; Table II, 0.06 kg/h): 3 (75-100)
- Rating, Downy Brome (Downy Brome [1]; Table II, 0.28 kg/h): 3 (75-100)
- Rating, Downy Brome (Downy Brome [1]; Table II, 1.12 kg/h): 3 (75-100)
- Rating, Downy Brome (Downy Brome [1]; Table II, 5.6 kg/h): 3 (75-100)
- Rating, Cocklebur (Cocklebur; Table II, 0.06 kg/h): 0 (0-24)
- Rating, Cocklebur (Cocklebur; Table II, 5.6 kg/h): 0 (0-24)
- Rating, Hemp Sesbania (Hemp Sesbania; 0.006 kg/h): 2 (50-74)
- Rating, Hemp Sesbania (Hemp Sesbania; 0.01 kg/h): 2 (50-74)
- Rating, Hemp Sesbania (Hemp Sesbania; 0.06 kg/h): 3 (75-100)
- Rating, Hemp Sesbania (Hemp Sesbania; 0.28 kg/h): 3 (75-100)
- Rating, Hemp Sesbania (Hemp Sesbania; 1.12 kg/h): 3 (75-100)
- Rating, Hemp Sesbania (Hemp Sesbania; 5.6 kg/h): 3 (75-100)
- Rating, Smartweed (Smartweed; Table I, 5.6 kg/h): 2 (50-74)
- Rating, Smartweed (Smartweed; Table I, 11.2 kg/h): 3 (75-100)
- Rating, Smartweed (Smartweed; Table II, 0.006 kg/h): 0 (0-24)
- Rating, Smartweed (Smartweed; Table II, 0.01 kg/h): 0 (0-24)
- Rating, Smartweed (Smartweed; Table II, 0.06 kg/h): 0 (0-24)
- Rating, Smartweed (Smartweed; Table II, 0.28 kg/h): 2 (50-74)
- Rating, Smartweed (Smartweed; Table II, 1.12 kg/h): 3 (75-100)
- Rating, Smartweed (Smartweed; Table II, 5.6 kg/h): 3 (75-100)
- Rating, Sorghum (Sorghum; 0.006 kg/h): 0 (0-24)
- Rating, Sorghum (Sorghum; 0.01 kg/h): 0 (0-24)
- Rating, Sorghum (Sorghum; 0.06 kg/h): 2 (50-74)
- Rating, Sorghum (Sorghum; 0.28 kg/h): 3 (75-100)
- Rating, Sorghum (Sorghum; 1.12 kg/h): 3 (75-100)
- Rating, Sorghum (Sorghum; 5.6 kg/h): 3 (75-100)
- efficacy in direct-seeded rice (direct-seeded rice): less-efficacious
- Rating, Velvetleaf (Velvetleaf; Table I, 5.6 kg/h): 2 (50-74)
- Rating, Velvetleaf (Velvetleaf; Table I, 11.2 kg/h): 2 (50-74)
- Rating, Velvetleaf (Velvetleaf; Table II, 0.006 kg/h): 0 (0-24)
- Rating, Velvetleaf (Velvetleaf; Table II, 0.01 kg/h): 0 (0-24)
- Rating, Velvetleaf (Velvetleaf; Table II, 0.06 kg/h): 0 (0-24)
- Rating, Velvetleaf (Velvetleaf; Table II, 0.28 kg/h): 0 (0-24)
- Rating, Velvetleaf (Velvetleaf; Table II, 1.12 kg/h): 1 (25-49)
- Rating, Velvetleaf (Velvetleaf; Table II, 5.6 kg/h): 1 (25-49)
- Rating, Yellow Nutsedge (Yellow Nutsedge; 5.6 kg/h): 3 (75-100)
- Rating, Yellow Nutsedge (Yellow Nutsedge; 11.2 kg/h): 3 (75-100)

Compound: CCCCOCN(C(=O)CCl)c1c(CC)cccc1CC [Compound A, 2',6'-diethyl-N-(n-butoxymethyl)-2-chloroacetanilide]
- rate at which rice safety is maintained (Upland seeded rice; Upland seeded rice, greenhouse, maximum test rate): ≥ 1.12 kg/ha
- rate for selective control of Echinochloa crus-galli (Echinochloa crus-galli): 0.14 kg/ha
- selectivity factor, Echinochloa crus-galli in Upland seeded rice (Echinochloa crus-galli): at least 8
